Assay results reported in patent US12672653B2, “Pest management” (priority 2017, dated 2026).
Values after ≈ are worked out from the molar mass of the structure shown. Like-named read-outs stand apart in the source and are kept apart here.

How the values were obtained:
Myzus persicae [1] = experiment: whole plant or invertebrate; conditions: foliar; for LC50: read-out: LC50 (95% CI's)
Musca domestica = experiment: Knockdown and mortality of houseflies exposed to treated tiles; type: in vivo
Method: Each formulation was filled into a hand-held pump sprayer. The treatments were applied to tiles from a distance of 20 cm. The tile was placed on a 0.5 m^2 grid and the entire 0.5 m^2 was sprayed, including the tile, at a rate of 50 mL/m^2. To ensure the correct volume was applied, the pump sprayer was weighed before and after spraying.
The tiles were left for two hours post-treatment to allow the formulation to dry on the tile, before evaluation started.
A control tile that was not treated with any formulation (untreated) was also used.
Ten mixed sex Musca domestica houseflies were placed in a plastic petri dish using a powered aspirator. The petri dish placed over a treated or control tile surface. The petri dish was perforated for ventilation with small holes and a cotton wool plug soaked in sugar solution provided moisture and plugged the insect introduction hole in the petri dish.
The houseflies were constantly exposed to a treated or untreated tile surface. The exposure took place at a temperature of 22±2° C. and about 50% relative humidity (RH).
After 30 minutes exposure, a piece of paper was placed over the tile surface to prevent contact of the houseflies with the treated or untreated tile. The houseflies were held at 22±2° C. and about 50% RH for 24 hours.
Housefly knockdown was noted 15 minutes and 30 minutes after beginning of exposure and 1, 2, 3 and 4 hours after initial exposure.
The above experiment was repeated four times to give five replicates. No statistical analysis was done.

Aedes aegypti L3 larvae = experiment: Mosquito larval topical dose-mortality assay (synergism); type: in vivo; conditions: for LC50: Aedes aegypti, topical
Method: The efficacy of a flavesone formulation against mosquito larvae was investigated together with investigation of the potential for synergistic action of flavesone and one or more technical grade insecticides. Dose-mortality assays were performed to evaluate the toxicity of technical grade insecticide, here the synthetic pyrethroid (SP) permethrin at various concentrations (minimum five dose points) alone and co-administered with flavesone at single point dose was performed. Assays were conducted using L3 larvae of the Liverpool (SP susceptible) and Puerto Rico (SP resistant) strains of the yellow fever mosquito, Aedes aegypti maintained in continuous culture at Purdue University, US. Larvae were transferred to a 24 well tissue plate using a wide-bore plastic transfer pipette, 5 larvae per well. The water was gently removed from the well with a 1 mL pipette and an equivalent amount of ddH2O was added. The appropriate volume of test compound was added to each of the four replicate wells per treatment and the plate gently swirled to ensure uniform mixing. The plate was placed in a test or growth chamber under constant conditions of 22-25° C. and about 75-85% relative humidity on a 12 h light/12 hr dark cycle. Assays were scored for the phenotypic endpoint of death/paralysis at 24, 48 and 72 hours post exposure. Each assay incorporated a positive (flavesone) and negative (vehicle only) control, and minimum of four technical replicates per dose of test chemistry. The data reported here represent three biological replicates.
Pilot assays were first employed to determine dose of flavesone (LC50, LC25 or LC10 dose as determined in previous dose-mortality tests) appropriate for synergism assays. […] The Synergistic Ratio (SR) for insecticide+flavesone combination is also shown and the synergistic action evaluated as per the published studies of Ahmed and Matsumura (2012, Journal of Medical Entomology 49(6):1405-10) and Ahmed and Vogel (2015, Acta Tropica 155:1-5).

Myzus persicae [2] = conditions: 96 hours exposure; first bioassay dose-response curve
[3] = system: Dorsal root ganglion (DRG) cells; experiment: Whole-cell patch-clamp current-clamp recording of dorsal root ganglion cells (membrane potential, action potentials); type: cell-based, Sprague-Dawley rats
Method: (§1) Dorsal root ganglion (DRG) cells were obtained from young adult male Sprague-Dawley rats weighing 220-250 g. The rats were housed in groups of 4 in an air conditioned room on a 12 hour light/dark cycle with food and water available ad libitum.
(§2) Animals were humanely killed and the lower thoracic and upper lumbar region DRG removed and stored in chilled phosphate buffered saline (PBS). The DRG were carefully trimmed and then digested using 2 mg/mL trypsin (type XII-S) and 2 mg/mL collagenase (type XI), freshly made up in PBS, for 45-60 mins in a shaking water bath at 37° C. Subsequent to extensive washing with PBS and then plating medium (PM; 50:50 mix of DMEM/Hams F12, supplemented with 10% foetal bovine serum, 100 U/mL penicillin and 100 μg/mL streptomycin), careful trituration of the DRG was carried out using sterile fire polished glass pipettes of decreasing diameter and the cells were plated on coated glass coverslips (BD Biosciences, BD Biocoat, poly-D-Lysine), contained in 35 mm tissue culture dishes so that the cells could be easily transferred to the recording chamber mounted on an Olympus IX51 […] microscope for electrophysiological recording. Cells were incubated under standard tissue culture conditions (36° C. in a humidified atmosphere of 5% CO2, 95% air) and were used within 48-72 hours of plating.
(§3) Whole-cell patch-clamp recordings were conducted at room temperature ([…]) using an Axopatch 200B amplifier (Axon Instruments Inc., USA) with 3-7 MΩ electrodes, depending on the patch success rate and recording quality. Data were filtered and digitized appropriately. Current-clamp recordings were performed with pipette solution of the following composition: 140 mM KCl, 0.5 mM EGTA, 5 mM HEPES, 3 mM Mg-ATP and 3 mM Na-GTP (pH 7.3), adjusted to 310 mOsm/L with glucose. The bathing solution contained: 140 mM NaCl, 3 mM KCl, 2 mM MgCl2, 2 mM CaCl2, and 10 mM HEPES (pH 7.3), adjusted to 315 mOsm/L with glucose. Passive membrane properties (e.g. resting membrane potential (Vm)) were monitored during the first few minutes from establishing whole-cell access and periodically during recording. Evoked potential recordings commenced 3-5 minutes after establishing whole-cell configuration.
(§4) Flavesone test solutions were prepared fresh from a stock solution (96.7% w/w) on the day of recording. 100 μL of flavesone composition was mixed with 100 µL of Tween 80 and diluted to 10 mL in artificial cerebrospinal fluid (aCSF) to give a final flavesone concentration of 1%. The pH of the 1% solution was adjusted to 7.3 with 1M NaOH and diluted to 0.5% and 0.25% flavesone concentration with aCSF containing 1% Tween 80 immediately prior to use. Test compounds were applied using a DAD-16VC fast perfusion system (ALA Scientific Instruments, USA) and compared to the results gathered using control flow. The control was aSCF with 1% Tween 80.
(§5) Comparison samples of permethrin were prepared as 100 μM permethrin in […] (DMSO).
(§6) All analysis was conducted using Clampfit (MDS Analytical Technologies) and Excel (Microsoft) software. Statistical comparisons between groups were performed using the Student's t-test with P<0.05 taken to identify a significant difference.

sodium channels = experiment: Sodium conductance in the DRG (voltage clamp recording); type: cell-based, Sprague-Dawley rats; conditions: for Normalised Na^+ Conductance Amplitude, Mean: Control = 100
Method: as §1, §2, §3, §4, §5, §6
Pyrethroids such as permethrin are known to be sodium channel modulators. Analysis of the effects of flavesone and permethrin on sodium conductance in the DRG was examined. […]

[4] = 0.5% flavesone, Table 3, permethrin experiment
[5] = voltage clamp recording configuration

Compound: CC1(C)C(C=C(Cl)Cl)C1C(=O)OC(C#N)c1cccc(Oc2ccccc2)c1 (stereo not drawn) [Alpha-cypermethrin]
- mortality at 16 µg/mL (Myzus persicae [1]; 96 h): 21.6%
- mortality at 40 µg/mL (Myzus persicae [1]; 96 h): 44.9%
- mortality at 60 µg/mL (Myzus persicae [1]; 96 h): 52.2%
- mortality at 80 µg/mL (Myzus persicae [1]; 96 h): 86.9%
- LC50 (Myzus persicae [1]; 96 h): 44.6 µg/mL (≈ 107 µM)

Compound: CC(C)C(=O)C1C(=O)C(C)(C)C(=O)C(C)(C)C1=O [Flavesone, 1-isobutyroyl-3,3,5,5-tetramethylcyclohexan-2,4,6-trione]
- mortality (Musca domestica; both rates (200 mg/mL & 100 mg/mL), 24 hours post initial exposure): 100%
- knockdown of houseflies (Musca domestica; rates of 200 mg/mL & 100 mg/mL, after 15 minutes exposure): 100%
- larval phenotype (Aedes aegypti L3 larvae; addition of flavesone): unambiguous “lethal” larval phenotype
- LC15 (Myzus persicae [2]): 1200 mg a.i./L
- LC30 (Myzus persicae [2]): 1800 mg a.i./L
- effect on potassium channels [3]: activates one or more potassium channels
- input resistance in DRG neurones [3]: reduced input resistance
- Vm (mV) Mean ([3]; 0.25% flavesone): −71.51 mV
- Δ Vm (mV) Mean ([3]; 0.25% flavesone): −7.80 mV
- Normalised No. of Action Potentials @ Vh −50 mV, Mean ([3]; 0.5% flavesone, Control = 100): 74.0
- Vm (mV) Mean ([3]; 0.5% flavesone, Table 2): −73.54 mV
- Δ Vm (mV) Mean ([3]; 0.5% flavesone, Table 2): −18.15 mV
- Vm (mV) Mean [3, 4]: −80.56 mV
- Δ Vm (mV) Mean [3, 4]: −19.63 mV
- Normalised Action Potentials Amplitude, Mean ([3]; 0.5% flavesone, Table 5, Control = 100): 77.72
- Normalised Action Potentials Amplitude, Mean ([3]; 0.5% flavesone, Table 6, Control = 100): 90.17
- Vm (mV) Mean ([3]; 1% flavesone): −83.75 mV
- Δ Vm (mV) Mean ([3]; 1% flavesone): −29.82 mV
- Normalised No. of Action Potentials @ Vh −50 mV, Mean ([3]; 1% flavesone, Control = 100): 65.8
- Normalised Action Potentials Amplitude, Mean ([3]; 1% flavesone, Table 5, Control = 100): 28.35
- Normalised Action Potentials Amplitude, Mean ([3]; 1% flavesone, Table 6, Control = 100): 91.50
- number of action potentials ([3]; flavesone, Table 4): slightly reduced
- amplitude of the action potentials ([3]; flavesone, Table 5): reduced
- action potential threshold ([3]; flavesone, Table 6): no significant effect
- resting potential from current-voltage relations ([3]; in the presence of flavesone): about −84 mV
- mean resting potential (Vm) ([3]; reduced from about −62 mV by flavesone): about −84 mV
- effect on sodium channels (sodium channels): no effect on sodium channels
- area under the curve (AUC) (sodium channels; 0.5% flavesone, 1% flavesone versus control and wash): no significant difference
- Normalised Na^+ Conductance Amplitude, Mean (sodium channels; 0.5% flavesone): 84.65
- Normalised Na^+ Conductance Amplitude, Mean (sodium channels; 1% flavesone): 77.56
- sodium conductance amplitude (sodium channels; flavesone, Table 10): no significant effect
- channel inactivation/deactivation (sodium channels; [5]): no effect
- reduction of sodium channel conductance (sodium channels; voltage clamp recording configuration, not significantly different to control): approximately 20%
- mortality at 1200 µg/mL (Myzus persicae [1]; 96 h): 10.9%
- mortality at 1800 µg/mL (Myzus persicae [1]; 96 h): 25.7%
- LC50 (Myzus persicae [1]): 2730 µg/mL (≈ 10800 µM)

Compound: CC1(C)C(C=C(Cl)Cl)C1C(=O)OCc1cccc(Oc2ccccc2)c1 (stereo not drawn) [Permethrin]
- mortality (Musca domestica; 1.25 mg/mL rate, 24 hours post-initial exposure): 62%
- knockdown of houseflies (Musca domestica; 2.5 mg/mL and 1.25 mg/mL, any assessment time): < 100%
- mortality (Musca domestica; 2.5 mg/mL rate, 24 hours post-initial exposure): 72%
- knockdown of houseflies (Musca domestica; both rates (2.5 and 1.25 mg/mL), 1-hour post initial exposure): 94%
- LC50 (Aedes aegypti L3 larvae; 24 h, read-out: LC50 (ng/ml) (95% CL), Permethrin Dose-Mortality, L3 larvae, Liverpool (LVP, SP susceptible) strain, 24 hours post exposure, Permethrin alone): 26.7 ng/mL
- LC50 (Aedes aegypti L3 larvae; 24 h, read-out: LC50 (ng/ml) (95% CL), Permethrin Dose-Mortality, L3 larvae, Puerto Rico (PRS, SP resistant) strain, 24 hours post exposure, Permethrin alone): 280 ng/mL
- LC50 (Aedes aegypti L3 larvae; 48 h, read-out: LC50 (ng/ml) (95% CL), Permethrin Dose-Mortality, L3 larvae, Liverpool (LVP, SP susceptible) strain, 48 hours post exposure, Permethrin alone): 24.3 ng/mL
- LC50 (Aedes aegypti L3 larvae; 48 h, read-out: LC50 (ng/ml) (95% CL), Permethrin Dose-Mortality, L3 larvae, Puerto Rico (PRS, SP resistant) strain, 48 hours post exposure, Permethrin alone): 231 ng/mL
- level of resistance to Permethrin (Aedes aegypti L3 larvae; Puerto Rico strain larvae as compared to Liverpool strain larvae): approximately 10 fold
- effect on potassium channels [3]: no effect on potassium channels
- input resistance in DRG neurones [3]: no effect on the input resistance
- effect on mean resting potential (Vm) ([3]; 100 μM): no effect
- Vm (mV) Mean ([3]; 100 μM permethrin): −61.48 mV
- Δ Vm (mV) Mean ([3]; 100 μM permethrin): −08 mV
- DRG Normalised No. of Action Potentials @ Vh −50 mV, Mean ([3]; 100 μM permethrin, Control = 100): 17.95
- Normalised Action Potentials Amplitude, Mean ([3]; 100 μM permethrin, Table 8, Control = 100): 99.46
- Normalised Action Potentials Amplitude, Mean ([3]; 100 μM permethrin, Table 9, Control = 100): 100.20
- number of action potentials ([3]; permethrin 100 μM, Table 7): significantly reduced
- amplitude of the actions ([3]; permethrin 100 μM, Table 8): no effect
- action potential threshold ([3]; permethrin 100 μM, Table 9): no effect
- effect on sodium channels (sodium channels): had an effect on sodium channels
- Normalised Na^+ Conductance Amplitude, Mean (sodium channels; 100 μM permethrin, Table 11): 103.47
- Normalised Na^+ Conductance Amplitude, Mean (sodium channels; 100 μM permethrin, Table 12): 282.56
- sodium conductance amplitude (sodium channels; permethrin, Table 11): little effect
- area under the curve (AUC) (sodium channels; permethrin, Table 12): significant increase
- channel inactivation/deactivation (sodium channels; [5]): significantly prolonged channel inactivation

Compound: Cc1nc(N(C)C)nc(OC(=O)N(C)C)c1C [Pirimicarb]
- mortality at 10 µg/mL (Myzus persicae [1]; 96 h): 20.3%
- mortality at 18.5 µg/mL (Myzus persicae [1]; 96 h): 36.1%
- mortality at 23 µg/mL (Myzus persicae [1]; 96 h): 82.8%
- mortality at 30 µg/mL (Myzus persicae [1]; 96 h): 76.2%
- LC50 (Myzus persicae [1]; 96 h): 19.7 µg/mL (≈ 82.7 µM)
